Test results: patent US6841565B1, “Treatment of patients with chronic lymphocytic leukemia” (The Ohio State University, priority 2002, dated 2005)
Like-named read-outs stand apart in the source and are kept apart here.

How the values were obtained:
B-CLL cells [1] = assay: cells; assay type: cell-based; conditions: Homo sapiens, read-out: LC50
Procedure: FIG. 1. LC50 determination of MS-275 in primary B-CLL cells. Peripheral blood mononuclear cells (PBMCs) from thirteen individual B-CLL patients were isolated and incubated with varying concentrations of MS-275 from 0.01 to 100 uM. A. Cells were incubated in drug for 4 hours and were then washed and re-incubated in fresh media for a total of 96 hours. B. Cells were incubated in drug for 96 hours continuously. Viability was determined by an MTT assay to detect metabolic activity. Each patient sample at each concentration was run in quadruplicate and was normalized to cells from the same patient incubated for the same time period in media alone. Error bars represent 95% confidence intervals. […]
In order to accurately represent the in vivo situation where drug is eliminated from the bloodstream, 1×10^6 PBMCs from B-CLL patients or healthy volunteers, isolated as described in Example 1, were incubated in various concentrations of MS-275 in RPMI 1640 with 10% heat-inactivated fetal bovine serum for 4, 24 or 96 hours at 37° C. in 96-well plates. […] Viability of the cells was then analyzed using the MTT assay. […] To use the MTT assay, MTT reagent was added and the cells were incubated for an additional 24 hours before washing and analysis of purple formazan formation by spectrophotometry in a Labsystems 96-well plate reader. […]

in vitro = assay type: cell-based; conditions: human
Source text: Peripheral blood mononuclear cells (PBMCs) were obtained from the B-CLL patients and were also obtained from healthy volunteers as controls. Peripheral blood was collected from the patients or volunteers using standard techniques (see for example, S. Bennett and S. N. Breit, 1994, Variables in the isolation and culture of human monocytes that are of particular relevance to studies of HIV, J. Leukoc. Biol. 56:236-40). PMBCs were isolated from the blood using standard density gradient centrifugation using Ficoll-Paque Plus (Pharmacia Biotech, Picsataway N.J.). After isolation, the PBMCs were washed in phosphate-buffered saline (PBS).
In order to accurately represent the in vivo situation where drug is eliminated from the bloodstream, 1×10^6 PBMCs from B-CLL patients or healthy volunteers, isolated as described in Example 1, were incubated in various concentrations of MS-275 in RPMI 1640 with 10% heat-inactivated fetal bovine serum for 4, 24 or 96 hours at 37° C. in 96-well plates. […] Viability of the cells was then analyzed using the MTT assay. […] To use the MTT assay, MTT reagent was added and the cells were incubated for an additional 24 hours before washing and analysis of purple formazan formation by spectrophotometry in a Labsystems 96-well plate reader. Data were plotted and values were calculated using GraphPad software (San Diego, Calif.).

histone deacetylases = assay: Histone acetylation in B-CLL cells by immunoblotting; assay type: cell-based, human
Procedure: FIG. 2. MS-275 induced acetylation of histone proteins. PBMCs from two different B-CLL patients (Patient No. 1 and 2) were collected and incubated with 0, 0.3, or 3.0 μM MS-275 for 24 hours. Nuclear extracts were prepared from the cells and were separated by SDS-polyacrylamide gel electrophoresis before immunoblotting with antibodies immunospecific for acetylated forms of H3 or H4 histones. Coomassie blue staining was used to control for protein amount loaded onto the SDS polyacrylamide gels.
Antibodies immunospecific for specific acetylated lysine residues at the N terminus of histone H4 (i.e., K5, K8, K12 and K16) were also used. For immunoblotting, whole cell lysates were prepared from the cells using standard procedures. Protein samples were separated along with molecular weight markers (BioRad) on 10 to 14% SDS-polyacrylamide gels. Proteins in the gels were transferred using a semidry apparatus (BioRad) onto nitrocellulose membranes (Schleicher and Schuell, Keene, N.H.). Gel loading equivalence was confirmed by Ponceau S stain (Sigma) of membranes and by probing with a monoclonal antibody for GAPDH. Blots were developed with chemiluminescent substrate (Pierce Super-Signal, Pierce Biotechnology, Rockford, Ill.) and autoradiography was performed with X-OMAT film (Kodak, Rochester, N.Y.). Protein bands were digitally quantified using a ChemiDoc instrument (BioRad).

B-CLL cells [2] = assay: Annexin V/propidium iodide flow cytometric apoptosis assay; assay type: cell-based, human
Procedure: FIG. 3. […] B-CLL patient cells were incubated with 0, 0.3, or 3.0 μM MS-275 for 24 hours. Apoptosis was assessed by annexin V/propidium iodide flow cytometry. To determine whether MS-275-treated B-CLL cells were undergoing apoptosis, an annexin V/propidium iodide flow cytometric assay was used to analyze the B-CLL cells, isolated as described in Example 1, from four different patients. Staining of cells for annexin V is an early indicator of initiation of apoptosis. Staining of cells with propidium iodide is an indicator that cells are no longer viable and, therefore, that apoptosis has actually occurred (i.e., integrity of cell membrane has been breached). To perform the assay, cells were exposed to various concentrations of MS-275 for 4 hours. Then, the cells were washed, resuspended in complete medium and incubated for 24 or 48 hours in absence of MS-275. At these times, cells were washed with PBS and resuspended in binding buffer containing annexin V-FITC and propidium iodide (BD Pharmingen, San Diego, Calif.). After 15 minutes of incubation in the dark at room temperature, apoptosis was assessed by flow cytometry on a Coulter EPICS-XL flow cytometer. […] The results were similar in the other three patients.

caspase 3 = assay: Caspase activation colorimetric assay, caspase 3; assay type: cell-based, human; conditions: B-CLL cells, 0.3 or 3.0 μM MS-275, 24 hours
Procedure: FIG. 4. […] B-CLL patient cells were incubated with 0.3 or 3.0 μM MS-275 for 24 hours. At these time points, lysates were prepared from the cells and caspase 3 activity in the lysates was measured using a colorimetric assay. To determine the role and identity of caspases involved in MS-275-induced apoptosis, B-CLL cells, isolated as described in Example 1, were treated with MS-275 and analyzed for caspase activation by colorimetric assay. […] Cleavage of the protein BID, a known substrate of caspase 8, was also shown.

caspases 8 and 9 = assay: Caspase activation, caspases 8 and 9; assay type: cell-based, human; conditions: B-CLL cells treated with MS-275, other studies
Procedure: To determine the role and identity of caspases involved in MS-275-induced apoptosis, B-CLL cells, isolated as described in Example 1, were treated with MS-275 and analyzed for caspase activation by colorimetric assay. […] Cleavage of the protein BID, a known substrate of caspase 8, was also shown.

1D10 antigen = 1D10 antigen levels on B-CLL cells by immunofluorescence flow cytometry; assay type: cell-based, human; conditions: 3.0 μM MS-275, 24 hours
Procedure: Washed B-CLL cells, isolated as described in Example 1, from four different patients with B-CLL, were incubated at a concentration of 10^7 cells per ml in the presence or absence of 3.0 μM MS-275 for 24 hours, before being immunofluorescently stained with either non-specific antibody (unable to specifically bind to the cells) or antibody immunospecific for 1D10 antigen. All cells were also stained with an antibody immunospecific for CD19 (recognizing B cells). The cells were analyzed by flow cytometry. The mean fluorescence intensity due to 1D10 antigen staining of CD19-positive cells was recorded.

[3] = test system: cellular histone deacetylase activity; conditions: A. Saito, et al., 1999; cited from earlier work
human tumor cell lines = conditions: A. Saito, et al., 1999; cited from earlier work
[4] = Patient No. 1, 0.3 μM MS-275, 24 hours
[5] = Patient No. 1, 3.0 μM MS-275, 24 hours
[6] = Patient No. 2, 0.3 μM MS-275, 24 hours
[7] = Patient No. 2, 3.0 μM MS-275, 24 hours
[8] = Patient No. 1, CD19-positive B-CLL cells
[9] = Patient No. 2, CD19-positive B-CLL cells
[10] = Patient No. 3, CD19-positive B-CLL cells
[11] = Patient No. 4, CD19-positive B-CLL cells

SMILES: Nc1ccccc1NC(=O)c1ccc(CNC(=O)OCc2cccnc2)cc1 [MS-275, N-(2-aminophenyl)-4-[N-(pyridin-3-yl-methoxycarbonyl)aminomethyl]benzamide]
- CC50 (B-CLL cells [1]; 96 h): 509 nM
- CC50 (B-CLL cells [1]): 1210 nM
- CC50 at 4 h (in vitro): ≥ 21100 nM
- CC50 at 96 h (in vitro): ≥ 4750 nM
- Fold Increase in Histone Acetylation (Relative to Untreated), H3 Total (histone deacetylases; [4]): 1.3 fold
- Fold Increase in Histone Acetylation (Relative to Untreated), H4 K5 (histone deacetylases; [4]): 2.7 fold
- Fold Increase in Histone Acetylation (Relative to Untreated), H4 K8 (histone deacetylases; [4]): 1.6 fold
- Fold Increase in Histone Acetylation (Relative to Untreated), H4 K12 (histone deacetylases; [4]): 4.4 fold
- Fold Increase in Histone Acetylation (Relative to Untreated), H4 K16 (histone deacetylases; [4]): 3.7 fold
- Fold Increase in Histone Acetylation (Relative to Untreated), H4 Total (histone deacetylases; [4]): 2.4 fold
- Fold Increase in Histone Acetylation (Relative to Untreated), H3 Total (histone deacetylases; [5]): 2.3 fold
- Fold Increase in Histone Acetylation (Relative to Untreated), H4 K5 (histone deacetylases; [5]): 8.9 fold
- Fold Increase in Histone Acetylation (Relative to Untreated), H4 K8 (histone deacetylases; [5]): 1.9 fold
- Fold Increase in Histone Acetylation (Relative to Untreated), H4 K12 (histone deacetylases; [5]): 15.8 fold
- Fold Increase in Histone Acetylation (Relative to Untreated), H4 K16 (histone deacetylases; [5]): 9.1 fold
- Fold Increase in Histone Acetylation (Relative to Untreated), H4 Total (histone deacetylases; [5]): 3.9 fold
- Fold Increase in Histone Acetylation (Relative to Untreated), H3 Total (histone deacetylases; [6]): 1.5 fold
- Fold Increase in Histone Acetylation (Relative to Untreated), H4 K5 (histone deacetylases; [6]): 2.6 fold
- Fold Increase in Histone Acetylation (Relative to Untreated), H4 K8 (histone deacetylases; [6]): 4.4 fold
- Fold Increase in Histone Acetylation (Relative to Untreated), H4 K12 (histone deacetylases; [6]): 5.1 fold
- Fold Increase in Histone Acetylation (Relative to Untreated), H4 K16 (histone deacetylases; [6]): 3.1 fold
- Fold Increase in Histone Acetylation (Relative to Untreated), H4 Total (histone deacetylases; [6]): 3.8 fold
- Fold Increase in Histone Acetylation (Relative to Untreated), H3 Total (histone deacetylases; [7]): 3.1 fold
- Fold Increase in Histone Acetylation (Relative to Untreated), H4 K5 (histone deacetylases; [7]): 4.5 fold
- Fold Increase in Histone Acetylation (Relative to Untreated), H4 K8 (histone deacetylases; [7]): 4.8 fold
- Fold Increase in Histone Acetylation (Relative to Untreated), H4 K12 (histone deacetylases; [7]): 10.3 fold
- Fold Increase in Histone Acetylation (Relative to Untreated), H4 K16 (histone deacetylases; [7]): 4.7 fold
- Fold Increase in Histone Acetylation (Relative to Untreated), H4 Total (histone deacetylases; [7]): 5.2 fold
- apoptosis (annexin V/propidium iodide flow cytometry) (B-CLL cells [2]; 0.3 μM of MS-275, after 48 hours): apoptosis was detected after 48 hours
- apoptosis (annexin V/propidium iodide flow cytometry) (B-CLL cells [2]; 3.0 μM of MS-275, within 24 hours, one representative patient): apoptosis was detected within 24 hours
- effect of Bcl-2 expression on MS-275-induced apoptosis (B-CLL cells [2]; expression of the anti-apoptotic protein Bcl-2, other studies): inhibited by expression of the anti-apoptotic protein Bcl-2
- caspase 3 activation (caspase 3): induced activation of caspase 3
- caspases 8 and 9 activation (caspases 8 and 9): activated to a lesser extent than caspase 3
- mean 1D10 fluorescence normalized to the staining control (1D10 antigen; [8]): 88
- mean 1D10 fluorescence of the cells (1D10 antigen; [8]): 104.11
- mean 1D10 fluorescence normalized to the staining control (1D10 antigen; [9]): 393
- mean 1D10 fluorescence of the cells (1D10 antigen; [9]): 463.23
- mean 1D10 fluorescence normalized to the staining control (1D10 antigen; [10]): 3252
- mean 1D10 fluorescence of the cells (1D10 antigen; [10]): 6438.03
- mean 1D10 fluorescence normalized to the staining control (1D10 antigen; [11]): 4158
- mean 1D10 fluorescence of the cells (1D10 antigen; [11]): 5446.76
- inhibition of cellular histone deacetylase activity [3]: inhibit cellular histone deacetylase activity
- growth in a variety of human tumor cell lines (human tumor cell lines): block growth
